Assay results as given in ChEMBL document CHEMBL4831546, “Discovery of a Potent and Orally Bioavailable Hypoxia-Inducible Factor 2α (HIF-2α) Agonist and Its Synergistic Therapy with Prolyl Hydroxylase Inhibitors for the Treatment of Renal Anemia” (J Med Chem, 2021).

Molecular target: Endothelial PAS domain-containing protein 1 (Homo sapiens, UniProt Q99814)
Sequence (Q99814 whole entry, the tested form may be a part): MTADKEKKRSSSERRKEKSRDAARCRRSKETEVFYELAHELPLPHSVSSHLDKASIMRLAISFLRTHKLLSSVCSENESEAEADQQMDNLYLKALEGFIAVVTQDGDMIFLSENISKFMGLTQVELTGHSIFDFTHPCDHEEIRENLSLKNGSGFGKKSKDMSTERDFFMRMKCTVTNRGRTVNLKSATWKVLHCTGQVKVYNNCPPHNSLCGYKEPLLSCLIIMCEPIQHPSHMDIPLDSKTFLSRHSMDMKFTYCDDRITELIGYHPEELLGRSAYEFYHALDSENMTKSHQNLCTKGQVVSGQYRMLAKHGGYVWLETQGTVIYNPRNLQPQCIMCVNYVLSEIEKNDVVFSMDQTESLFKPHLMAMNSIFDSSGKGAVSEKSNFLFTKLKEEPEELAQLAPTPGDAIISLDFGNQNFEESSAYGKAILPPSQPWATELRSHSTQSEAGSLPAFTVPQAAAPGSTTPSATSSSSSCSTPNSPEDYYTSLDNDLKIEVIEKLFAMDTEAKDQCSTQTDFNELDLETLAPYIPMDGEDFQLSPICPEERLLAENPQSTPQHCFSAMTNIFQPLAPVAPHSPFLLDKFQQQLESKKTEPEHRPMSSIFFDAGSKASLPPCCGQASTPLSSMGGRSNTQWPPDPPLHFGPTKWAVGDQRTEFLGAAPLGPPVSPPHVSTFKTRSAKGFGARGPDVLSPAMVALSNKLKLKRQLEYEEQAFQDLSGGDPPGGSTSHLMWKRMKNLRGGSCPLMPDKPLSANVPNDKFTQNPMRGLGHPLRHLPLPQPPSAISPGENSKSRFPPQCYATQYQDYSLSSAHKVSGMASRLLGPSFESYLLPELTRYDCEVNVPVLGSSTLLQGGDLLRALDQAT
Description: Agonist activity at HIF-2alpha (unknown origin) expressed in 786-O cells measured after 24 hrs by HRE based luciferase reporter gene assay

EC50: 2.92 µM
Compound: Clc1cc(Cl)cc(Nc2nsc3ccccc23)c1
